The target in this experiment is ATR kinase (full-length ATR) (Homo sapiens (Human), UniProt Q13535). Kind of experiment: ATR inhibition assay (radioactive-phosphate incorporation). The experiment is classed as biochemical. A digest of the protocol:
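Radiometric 33P incorporation by 5 nM full-length ATR into 800 μM target peptide with 10 μM [γ-33P]ATP, in 50 mM Tris/HCl pH 7.5, 10 mM MgCl2, 1 mM DTT, 7% DMSO, 25° C. Compound pre-incubated 10 minutes; reaction stopped after 24 hours, captured on phosphocellulose. Ki(app) from non-linear regression of initial rates.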

Where [1] appears, read: Ki(app), 5 nM full-length ATR, 10 μM ATP, 25° C.

Where two headings read alike, the source gives them in different places.

Sequence of ATR kinase (full-length ATR) (Q13535 whole entry): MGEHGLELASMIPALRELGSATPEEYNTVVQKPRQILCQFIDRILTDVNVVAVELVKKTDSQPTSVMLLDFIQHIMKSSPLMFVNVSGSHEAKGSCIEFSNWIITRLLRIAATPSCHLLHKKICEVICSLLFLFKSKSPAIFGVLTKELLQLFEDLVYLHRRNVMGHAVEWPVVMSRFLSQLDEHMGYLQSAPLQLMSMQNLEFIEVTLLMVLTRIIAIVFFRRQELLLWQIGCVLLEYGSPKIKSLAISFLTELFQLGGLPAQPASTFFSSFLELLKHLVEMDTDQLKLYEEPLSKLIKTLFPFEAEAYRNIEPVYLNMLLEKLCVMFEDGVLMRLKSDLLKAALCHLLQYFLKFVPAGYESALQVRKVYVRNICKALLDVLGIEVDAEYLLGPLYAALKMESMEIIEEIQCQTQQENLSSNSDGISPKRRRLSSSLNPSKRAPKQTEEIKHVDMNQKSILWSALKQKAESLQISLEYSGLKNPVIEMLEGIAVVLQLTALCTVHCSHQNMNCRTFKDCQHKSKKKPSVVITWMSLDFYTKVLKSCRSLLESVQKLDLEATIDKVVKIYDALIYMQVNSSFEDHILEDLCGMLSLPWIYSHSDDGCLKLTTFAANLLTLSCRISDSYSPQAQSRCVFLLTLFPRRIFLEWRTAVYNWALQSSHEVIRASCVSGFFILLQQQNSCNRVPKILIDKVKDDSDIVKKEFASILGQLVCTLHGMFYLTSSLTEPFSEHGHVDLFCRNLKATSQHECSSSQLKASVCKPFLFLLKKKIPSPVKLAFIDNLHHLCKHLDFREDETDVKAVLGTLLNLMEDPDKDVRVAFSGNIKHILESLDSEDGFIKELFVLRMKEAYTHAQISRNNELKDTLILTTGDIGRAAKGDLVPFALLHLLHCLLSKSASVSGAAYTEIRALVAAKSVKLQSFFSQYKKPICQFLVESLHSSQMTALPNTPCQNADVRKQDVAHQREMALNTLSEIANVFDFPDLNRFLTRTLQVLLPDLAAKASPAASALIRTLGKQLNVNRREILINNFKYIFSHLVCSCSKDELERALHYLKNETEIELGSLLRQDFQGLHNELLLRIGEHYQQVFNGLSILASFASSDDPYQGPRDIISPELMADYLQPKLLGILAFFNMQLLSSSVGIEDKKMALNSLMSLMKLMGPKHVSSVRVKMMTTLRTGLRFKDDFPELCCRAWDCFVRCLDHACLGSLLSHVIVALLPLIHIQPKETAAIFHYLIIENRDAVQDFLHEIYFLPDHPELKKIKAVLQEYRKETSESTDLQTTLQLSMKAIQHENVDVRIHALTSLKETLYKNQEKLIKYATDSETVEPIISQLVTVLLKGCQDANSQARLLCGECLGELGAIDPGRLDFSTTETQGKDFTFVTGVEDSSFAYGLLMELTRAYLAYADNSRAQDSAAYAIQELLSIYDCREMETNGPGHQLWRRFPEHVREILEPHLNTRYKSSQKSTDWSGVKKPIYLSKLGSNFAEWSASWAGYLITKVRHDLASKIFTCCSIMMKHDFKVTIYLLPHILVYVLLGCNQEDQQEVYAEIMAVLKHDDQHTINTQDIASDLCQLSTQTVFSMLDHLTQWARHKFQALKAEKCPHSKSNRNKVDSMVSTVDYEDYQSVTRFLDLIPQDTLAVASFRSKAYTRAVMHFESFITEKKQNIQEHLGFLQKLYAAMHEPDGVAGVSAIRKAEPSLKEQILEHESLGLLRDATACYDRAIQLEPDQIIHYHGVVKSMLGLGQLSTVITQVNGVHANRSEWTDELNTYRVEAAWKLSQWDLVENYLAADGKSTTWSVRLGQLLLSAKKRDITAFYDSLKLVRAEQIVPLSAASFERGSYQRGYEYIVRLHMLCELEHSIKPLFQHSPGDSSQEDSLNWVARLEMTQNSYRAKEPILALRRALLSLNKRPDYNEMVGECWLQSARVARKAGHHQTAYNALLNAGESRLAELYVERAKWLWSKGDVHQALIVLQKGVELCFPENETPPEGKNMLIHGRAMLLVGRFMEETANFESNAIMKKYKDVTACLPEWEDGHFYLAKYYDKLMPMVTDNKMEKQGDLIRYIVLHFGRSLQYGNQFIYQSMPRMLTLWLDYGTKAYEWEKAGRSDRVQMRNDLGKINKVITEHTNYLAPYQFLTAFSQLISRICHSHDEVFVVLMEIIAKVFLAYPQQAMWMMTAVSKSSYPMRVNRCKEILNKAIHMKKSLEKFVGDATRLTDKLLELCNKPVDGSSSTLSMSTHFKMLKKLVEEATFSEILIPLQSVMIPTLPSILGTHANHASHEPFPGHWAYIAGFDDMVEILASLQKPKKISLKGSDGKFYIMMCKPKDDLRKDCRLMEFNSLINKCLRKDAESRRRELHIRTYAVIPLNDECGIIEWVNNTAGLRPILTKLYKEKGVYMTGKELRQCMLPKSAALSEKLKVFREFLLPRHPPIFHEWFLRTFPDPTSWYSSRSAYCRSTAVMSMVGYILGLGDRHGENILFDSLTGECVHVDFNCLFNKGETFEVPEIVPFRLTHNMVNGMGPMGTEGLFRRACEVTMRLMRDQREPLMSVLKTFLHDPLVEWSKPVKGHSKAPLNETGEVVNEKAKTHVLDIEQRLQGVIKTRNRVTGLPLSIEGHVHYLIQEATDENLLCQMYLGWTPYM

`Cc1cncc(NC(=O)c2c(N)nn3cc(F)cnc23)c1N1CCN(C2CCOCC2)CC1` [I-N-123, 2-amino-6-fluoro-N-(5-methyl-4-(4-(tetrahydro-2H-pyran-4-yl)piperazin-1-yl)pyridin-3-yl)pyrazolo[1,5-a]pyrimidine-3-carboxamide]: the Ki under setting [1] fell in the range of 10 to 1000 nM.

Turning to `Nc1nn2cc(F)cnc2c1C(=O)Nc1cncc(F)c1N1CCC(OCCN2CCCC2)CC1` [I-N-167, 2-amino-6-fluoro-N-(5-fluoro-4-(4-(2-(pyrrolidin-1-yl)ethoxy)piperidin-1-yl)pyridin-3-yl)pyrazolo[1,5-a]pyrimidine-3-carboxamide], under setting [1], the Ki was in the range of 10 to 1000 nM. Take `Cn1ccc2cncc(NC(=O)c3c(N)nn4cc(F)cnc34)c21` [I-N-259, 2-amino-6-fluoro-N-(1-methyl-1H-pyrrolo[3,2-c]pyridin-7-yl)pyrazolo[1,5-a]pyrimidine-3-carboxamide]: the Ki fell in the range of 1000 to 5000 nM. For the compound `CC(C#N)c1cnc2c(C(=O)Nc3cncc(F)c3N3CCN(C4COC4)CC3)c(N)nn2c1` (centres unmarked) [I-N-145], under setting [1], the Ki is 10 to 1000 nM. Turning to `Nc1nn2cc(F)cnc2c1C(=O)Nc1cnccc1-c1ccc(S(=O)(=O)N2CCC2)cc1` [I-C-64, 2-amino-N-(4-(4-(azetidin-1-ylsulfonyl)phenyl)pyridin-3-yl)-6-fluoropyrazolo[1,5-a]pyrimidine-3-carboxamide], the Ki under setting [1] lay within 10 to 1000 nM. On the same count and under the same terms, the value for `Nc1nn2cc(F)cnc2c1C(=O)Nc1cnccc1-c1ccccn1` [I-C-60, N-([2,4′-bipyridin]-3′-yl)-2-amino-6-fluoropyrazolo[1,5-a]pyrimidine-3-carboxamide] was 10 to 1000 nM; that for `CN1CC[C@@H](Oc2ccncc2NC(=O)c2c(N)nn3cc(Cl)cnc23)C1` [I-O-63, (R)-2-amino-6-chloro-N-(4-((1-methylpyrrolidin-3-yl)oxy)pyridin-3-yl)pyrazolo[1,5-a]pyrimidine-3-carboxamide] was 10 to 1000 nM. Regarding `CC(C)(C)N1CCN(c2ccncc2NC(=O)c2c(N)nn3cc(Cl)cnc23)CC1` [I-N-34, 2-amino-N-(4-(4-(tert-butyl)piperazin-1-yl)pyridin-3-yl)-6-chloropyrazolo[1,5-a]pyrimidine-3-carboxamide], the Ki was in the range of 1000 to 5000 nM. For the compound `CNCCc1cnn(-c2ccncc2NC(=O)c2c(N)nn3cc(F)cnc23)c1` [I-N-8, 2-amino-6-fluoro-N-(4-(4-(2-(methylamino)ethyl)-1H-pyrazol-1-yl)pyridin-3-yl)pyrazolo[1,5-a]pyrimidine-3-carboxamide], the Ki was 1000 to 5000 nM. As to `COc1cncc(NC(=O)c2c(N)nn3cc(F)cnc23)c1-c1cncn1C` [I-C-81, 2-amino-6-fluoro-N-(5-methoxy-4-(1-methyl-1H-imidazol-5-yl)pyridin-3-yl)pyrazolo[1,5-a]pyrimidine-3-carboxamide], the Ki under setting [1] was < 10 nM. Same read-out and setting: in the case of `CN1CCN(c2c(F)cncc2NC(=O)c2c(N)nn3cc(Cl)cnc23)CC1` [I-N-14, 2-amino-6-chloro-N-(5-fluoro-4-(4-methylpiperazin-1-yl)pyridin-3-yl)pyrazolo[1,5-a]pyrimidine-3-carboxamide] it was 10 to 1000 nM.

For the compound `Nc1nn2cc(F)cnc2c1C(=O)Nc1cncc(F)c1N1CCN(S(=O)(=O)C2COC2)CC1` [I-N-201], the Ki under setting [1] fell in the range of 10 to 1000 nM. Same read-out and setting: the value for `Cn1c(-c2ccncc2NC(=O)c2c(N)nn3cc(F)cnc23)cccc1=O` [I-C-58, 2-amino-6-fluoro-N-(1-methyl-6-oxo-1,6-dihydro-[2,4′-bipyridin]-3′-yl)pyrazolo[1,5-a]pyrimidine-3-carboxamide] was 10 to 1000 nM; that for `N#CCc1cnc2c(C(=O)Nc3cnccc3O[C@@H]3CCOC3)c(N)nn2c1` [I-O-31, (R)-2-amino-6-(cyanomethyl)-N-(4-((tetrahydrofuran-3-yl)oxy)pyridin-3-yl)pyrazolo[1,5-a]pyrimidine-3-carboxamide] was < 10 nM; that for `CN1CCOC(C(=O)N2CCN(c3c(F)cncc3NC(=O)c3c(N)nn4cc(F)cnc34)CC2)C1` (centres unmarked) [I-N-174, 2-amino-6-fluoro-N-(5-fluoro-4-(4-(4-methylmorpholine-2-carbonyl)piperazin-1-yl)pyridin-3-yl)pyrazolo[1,5-a]pyrimidine-3-carboxamide] was 10 to 1000 nM.

For `CN(C)C(=O)[C@H]1CC[C@@H](Oc2ccncc2NC(=O)c2c(N)nn3cc(F)cnc23)CC1` [I-O-17, 2-amino-N-(4-(((1s,4s)-4-(dimethylcarbamoyl)cyclohexyl)oxy)pyridin-3-yl)-6-fluoropyrazolo[1,5-a]pyrimidine-3-carboxamide], the Ki under setting [1] is 10 to 1000 nM. As for `Nc1nn2cc(Cl)cnc2c1C(=O)Nc1cnccc1O[C@H]1CCNC1` [I-O-76, (S)-2-amino-6-chloro-N-(4-(pyrrolidin-3-yloxy)pyridin-3-yl)pyrazolo[1,5-a]pyrimidine-3-carboxamide], the Ki under setting [1] lay within 10 to 1000 nM. `CO[C@H]1CCN(C(=O)C2CCN(c3ccncc3NC(=O)c3c(N)nn4cc(F)cnc34)CC2)C1` [I-G-94, (S)-2-amino-6-fluoro-N-(4-(4-(3-methoxypyrrolidine-1-carbonyl)piperidin-1-yl)pyridin-3-yl)pyrazolo[1,5-a]pyrimidine-3-carboxamide]: the Ki under setting [1] lay within 10 to 1000 nM. The same measure, in the same setting: in the case of `Nc1nn2cc(F)cnc2c1C(=O)Nc1cncc(F)c1N1CCC(C(=O)N2CCN3CCCC3C2)CC1` (centres unmarked) [I-G-10, 2-amino-6-fluoro-N-(5-fluoro-4-(4-(octahydropyrrolo[1,2-a]pyrazine-2-carbonyl)piperidin-1-yl)pyridin-3-yl)pyrazolo[1,5-a]pyrimidine-3-carboxamide] it was 10 to 1000 nM; in that of `COc1ccncc1NC(=O)c1c(N)nn2cc(Cl)cnc12` [I-O-57, 2-amino-6-chloro-N-(4-methoxypyridin-3-yl)pyrazolo[1,5-a]pyrimidine-3-carboxamide], 10 to 1000 nM; in that of `Nc1nn2cc(F)cnc2c1C(=O)Nc1cnccc1-c1ccnnc1` [I-C-26, 2-amino-6-fluoro-N-(4-(pyridazin-4-yl)pyridin-3-yl)pyrazolo[1,5-a]pyrimidine-3-carboxamide], 10 to 1000 nM. Still for that read-out and setting: the value for `Nc1nn2cc(F)cnc2c1C(=O)Nc1cncc(F)c1N1CCC(C(=O)N2CCOCC2)CC1` [I-G-36, 2-amino-6-fluoro-N-(5-fluoro-4-(4-(morpholine-4-carbonyl)piperidin-1-yl)pyridin-3-yl)pyrazolo[1,5-a]pyrimidine-3-carboxamide] was 10 to 1000 nM; that for `Nc1nn2cc(Cl)cnc2c1C(=O)Nc1cnccc1OC1CCOCC1` [I-O-61, 2-amino-6-chloro-N-(4-((tetrahydro-2H-pyran-4-yl)oxy)pyridin-3-yl)pyrazolo[1,5-a]pyrimidine-3-carboxamide] was 10 to 1000 nM; that for `Cc1nncn1-c1ccncc1NC(=O)c1c(N)nn2cc(F)cnc12` [I-N-263, 2-amino-6-fluoro-N-(4-(3-methyl-4H-1,2,4-triazol-4-yl)pyridin-3-yl)pyrazolo[1,5-a]pyrimidine-3-carboxamide] was 10 to 1000 nM.

As for `CN1CCOC2(CCN(c3c(F)cncc3NC(=O)c3c(N)nn4cc(F)cnc34)CC2)C1` [I-N-272, 2-amino-6-fluoro-N-(5-fluoro-4-(4-methyl-1-oxa-4,9-diazaspiro[5.5]undecan-9-yl)pyridin-3-yl)pyrazolo[1,5-a]pyrimidine-3-carboxamide], the Ki under setting [1] lay within 10 to 1000 nM. Same read-out and setting: in the case of `COc1ccc(-c2ccncc2NC(=O)c2c(N)nn3cc(F)cnc23)cn1` [I-C-27, 2-amino-6-fluoro-N-(6-methoxy-[3,4′-bipyridin]-3′-yl)pyrazolo[1,5-a]pyrimidine-3-carboxamide] it was 10 to 1000 nM; in that of `Nc1nn2cc(F)cnc2c1C(=O)Nc1cnccc1OC1CCC(C(=O)O)CC1` (centres unmarked) [I-O-8, 4-((3-(2-amino-6-fluoropyrazolo[1,5-a]pyrimidine-3-carboxamido)pyridin-4-yl)oxy)cyclohexanecarboxylic acid], 10 to 1000 nM; in that of `Nc1nn2cc(F)cnc2c1C(=O)Nc1cncc(F)c1N1CCN(C2CCOC2)CC1` (centres unmarked) [I-N-122, 2-amino-6-fluoro-N-(5-fluoro-4-(4-(tetrahydrofuran-3-yl)piperazin-1-yl)pyridin-3-yl)pyrazolo[1,5-a]pyrimidine-3-carboxamide], 10 to 1000 nM. On to `CN1CCN(c2ccncc2NC(=O)c2c(N)nn3cc(F)cnc23)CC1=O` [I-N-209, 2-amino-6-fluoro-N-(4-(4-methyl-3-oxopiperazin-1-yl)pyridin-3-yl)pyrazolo[1,5-a]pyrimidine-3-carboxamide], for which the Ki under setting [1] lay in the range of 10 to 1000 nM. Still for that read-out and setting: the value for `N#CCc1cnc2c(C(=O)Nc3cnccc3N3CCC(O)CC3)c(N)nn2c1` [I-N-83, 2-amino-6-(cyanomethyl)-N-(4-(4-hydroxypiperidin-1-yl)pyridin-3-yl)pyrazolo[1,5-a]pyrimidine-3-carboxamide] was < 10 nM. On the same count and under the same terms, in the case of `Nc1nn2cc(F)cnc2c1C(=O)Nc1cnccc1N1CCN(C(=O)C2COC2)CC1` [I-N-249] it was 10 to 1000 nM; in that of `CC1(C)CN(C(=O)C2CCN(c3c(F)cncc3NC(=O)c3c(N)nn4cc(F)cnc34)CC2)CCN1` [I-G-27, 2-amino-N-(4-(4-(3,3-dimethylpiperazine-1-carbonyl)piperidin-1-yl)-5-fluoropyridin-3-yl)-6-fluoropyrazolo[1,5-a]pyrimidine-3-carboxamide], 10 to 1000 nM; in that of `N#CCc1cnc2c(C(=O)Nc3cnccc3OC3CCC3)c(N)nn2c1` [I-O-36, 2-amino-6-(cyanomethyl)-N-(4-cyclobutoxypyridin-3-yl)pyrazolo[1,5-a]pyrimidine-3-carboxamide], < 10 nM. The same measure, in the same setting: the value for `CN(C)C1CCCN(c2ccncc2NC(=O)c2c(N)nn3cc(Cl)cnc23)C1` (centres unmarked) [I-N-40, 2-amino-6-chloro-N-(4-(3-(dimethylamino)piperidin-1-yl)pyridin-3-yl)pyrazolo[1,5-a]pyrimidine-3-carboxamide] was 10 to 1000 nM; that for `CN1CCN(c2c(NC(=O)c3c(N)nn4cc(F)cnc34)cncc2C2CC2)CC1` [I-N-5, 2-amino-N-(5-cyclopropyl-4-(4-methylpiperazin-1-yl)pyridin-3-yl)-6-fluoropyrazolo[1,5-a]pyrimidine-3-carboxamide] was 10 to 1000 nM.

The values are drawn from patent US10392391B2 (Vertex Pharmaceuticals Incorporated, priority 2012, dated 2019).
